Assay results published in US10287301B2 (Achillion Pharmaceuticals, Inc., priority 2015, dated 2019).
pIC50: −log10 of the molar value.

target: Human Factor D (Homo sapiens (Human), UniProt P00746); assay: Human Factor D Assay; assay type: biochemical; settings: not given
Summary of the method: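 IC50 values derive from nonlinear regression of Factor D reaction rates against compound concentration. The enzyme, purified from human serum, is used at 80 nM final with a 5 min room-temperature compound preincubation in 50 mM Tris, 1M NaCl, pH 7.5, before 100 μM Z-L-Lys-SBzl plus 100 μM DTNB are added.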

Sequence of Human Factor D (P00746 26-253): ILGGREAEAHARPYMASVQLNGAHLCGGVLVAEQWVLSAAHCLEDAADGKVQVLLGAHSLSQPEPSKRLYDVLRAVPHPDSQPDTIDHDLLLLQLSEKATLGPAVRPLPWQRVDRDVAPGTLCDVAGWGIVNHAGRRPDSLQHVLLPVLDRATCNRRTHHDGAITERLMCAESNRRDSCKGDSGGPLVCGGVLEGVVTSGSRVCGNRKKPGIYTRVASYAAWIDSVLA

| Structure (SMILES) | pIC50 |
| --- | --- |
| CC(=O)c1nn(CC(=O)N2C[Si](C)(C)C[C@H]2C(=O)Nc2cccc(Br)n2)c2ccc(-c3cnc(C)nc3)cc12 [Compound 514, (R)-1-(2-(3-acetyl-5-(2-Methylpyrimidin-5-yl)-1H-indazol-1-yl)acetyl)-N-(6-bromopyridin-2-yl)-3,3-dimethyl-1,3-azasilolidine-5-carboxamide] | 5.00 to 6.00 |

same assay, conditions: Human Factor D 80 nM, substrate Z-L-Lys-SBzl; read-out: IC50

| Structure (SMILES) | pIC50 |
| --- | --- |
| NC(=O)c1nn(CC(=O)N2C[C@H](F)C[C@H]2C(=O)N[C@@H]2CCC[C@@H]2OCc2ccccc2)c2ccc(-c3ccnnc3)cc12 [Compound 51, 1-(2-((2S,4R)-2-((1R,2S)-2-(benzyloxy)cyclopentyl-carbamoyl)-4-fluoropyrrolidin-1-yl)-2-oxoethyl)-5-(pyridazin-4-yl)-1H-indazole-3-carboxamide] | < 5.00 |
| CC(=O)c1cn(CC(=O)N2C[C@H](F)C[C@H]2C(=O)Nc2cccc(-c3cc(F)c(F)cc3Cl)c2F)c2ccc(-c3cnc(C)nc3)cc12 [Compound 150, (2S,4R)-1-(2-(3-acetyl-5-(2-methylpyrimidin-5-yl)-1H-indol-1-yl)acetyl)-N-(2′-chloro-2,4′,5′-trifluorobiphenyl-3-yl)-4-fluoropyrrolidine-2-carboxamide] | > 6.00 |
| CC(=O)c1cn(CC(=O)N2C[C@H](F)C[C@H]2C(=O)Nc2cncc(Cl)c2)c2ccc(-c3ccnnc3)cc12 [Compound 66, (2S,4R)-1-(2-(3-acetyl-5-(pyridazin-4-yl)-1H-indol-1-yl)acetyl)-N-(5-chloropyridin-3-yl)-4-fluoropyrrolidine-2-carboxamide] | > 6.00 |
| CC(=O)c1cn(CC(=O)N2C[C@H](F)C[C@H]2C(=O)Nc2cccc(Br)n2)c2ccc(-c3cnc(C)nc3)cc12 [Compound 84, (2S,4R)-1-(2-(3-acetyl-5-(2-methylpyrimidin-5-yl)-1H-indol-1-yl)acetyl)-N-(6-bromopyridin-2-yl)-4-fluoropyrrolidine-2-carboxamide] | > 6.00 |

same assay, conditions: Human Factor D assay of Example 8; Table 2; read-out: IC50

| Structure (SMILES) | pIC50 |
| --- | --- |
| CC(=O)c1nn(CC(=O)N2C[C@H](F)C[C@H]2C(=O)Nc2cccc(-c3ccccc3Cl)c2F)c2ccc(-c3cnc4ccnn4c3)cc12 [Compound 237, (2S,4R)-1-(2-(3-acetyl-5-(pyrazolo[1,5-a]pyrimidin-6-yl)-1H-indazol-1-yl)acetyl)-N-(2′-chloro-2-fluorobiphenyl-3-yl)-4-fluoropyrrolidine-2-carboxamide] | > 6.00 |
| CC(=O)c1nn(CC(=O)N2CCC[C@H]2C(=O)Nc2cccc(Br)n2)c2ccc(-c3cnc(C)nc3)cc12 [Compound 230, (S)-1-(2-(3-Acetyl-5-(2-methylpyrimidin-5-yl)-1H-indazol-1-yl)acetyl)-N-(6-bromopyridin-2-yl)pyrrolidine-2-carboxamide] | > 6.00 |
| CC(=O)c1nn(CC(=O)N2C[C@H](F)C[C@H]2C(=O)Nc2cc(C)cc(Br)n2)c2ccc(-c3cnc4cc(C)nn4c3)cc12 [Compound 332, (2S,4R)-1-(2-(3-acetyl-5-(2-methylpyrazolo[1,5-a]pyrimidin-6-yl)-1H-indazol-1-yl)acetyl)-N-(6-bromo-4-methylpyridin-2-yl)-4-fluoropyrrolidine-2-carboxamide] | > 6.00 |
| CC(=O)c1nn(CC(=O)N2C[C@H](F)C[C@H]2C(=O)Nc2cncc(C(F)(F)F)n2)c2ccc(-c3cnc4cc(C)nn4c3)cc12 [Compound 313, (2S,4R)-1-(2-(3-acetyl-5-(2-methylpyrazolo[1,5-a]pyrimidin-6-yl)-1H-indazol-1-yl)acetyl)-4-fluoro-N-(6-(trifluoromethyl)pyrazin-2-yl)pyrrolidine-2-carboxamide] | > 6.00 |
| CC(=O)c1nn(CC(=O)N2C[C@H](F)C[C@H]2C(=O)Nc2cccc(Br)n2)c2ccc(-c3cnc(C)nc3C)cc12 [Compound 266, (2S,4R)-1-(2-(3-acetyl-5-(2,4-dimethylpyrimidin-5-yl)-1H-indazol-1-yl)acetyl)-N-(6-bromopyridin-2-yl)-4-fluoropyrrolidine-2-carboxamide] | > 6.00 |
| CC(=O)c1nn(CC(=O)N2C[C@@H](O)C[C@H]2C(=O)Nc2cccc(Br)n2)c2ccc(-c3cnc(C)nc3)cc12 [Compound 249, (2S,4S)-1-(2-(3-Acetyl-5-(2-methylpyrimidin-5-yl)-1H-indazol-1-yl)acetyl)-N-(6-bromopyridin-2-yl)-4-hydroxypyrrolidine-2-carboxamide] | > 6.00 |
| CC(=O)c1nn(CC(=O)N2C[C@H](F)C[C@H]2C(=O)Nc2cccc(OC(F)(F)F)n2)c2ccc(-c3cnc4cc(C)nn4c3)cc12 [Compound 330, (2S,4R)-1-(2-(3-acetyl-5-(2-methylpyrazolo[1,5-a]pyrimidin-6-yl)-1H-indazol-1-yl)acetyl)-4-fluoro-N-(6-(trifluoromethoxy)pyridin-2-yl)pyrrolidine-2-carboxamide] | > 6.00 |
| CC(=O)c1nn(CC(=O)N2C[C@H](F)C[C@H]2C(=O)Nc2cncc(Br)n2)c2ccc(-c3cnc4ccnn4c3)cc12 [Compound 322, (2S,4R)-1-(2-(3-acetyl-5-(pyrazolo[1,5-a]pyrimidin-6-yl)-1H-indazol-1-yl)acetyl)-N-(6-bromopyrazin-2-yl)-4-fluoropyrrolidine-2-carboxamide] | > 6.00 |
| CC(=O)c1cn(CC(=O)N2C[C@H](F)C[C@H]2C(=O)Nc2cccc(Br)n2)c2ccc(-c3cnc4nccn4c3)cc12 [Compound 222, (2S,4R)-1-(2-(3-acetyl-5-(imidazo[1,2-a]pyrimidin-6-yl)-1H-indol-1-yl)acetyl)-N-(6-bromopyridin-2-yl)-4-fluoropyrrolidine-2-carboxamide] | > 6.00 |
| CC(=O)c1nn(CC(=O)N2C[C@H](F)C[C@H]2C(=O)Nc2cccc(-c3cc(F)ccc3S(C)(=O)=O)c2F)c2ccc(-c3cnc(C)nc3)cc12 [Compound 305, (2S,4R)-1-(2-(3-Acetyl-5-(2-methylpyrimidin-5-yl)-1H-indazol-1-yl)acetyl)-N-(2,5′-difluoro-2′-(methylsulfonyl)-[1,1′-biphenyl]-3-yl)-4-fluoropyrrolidine-2-carboxamide] | > 6.00 |

same assay, conditions: Human Factor D, Table 3; read-out: IC50

| Structure (SMILES) | pIC50 |
| --- | --- |
| CC(=O)c1cn(CC(=O)N2C[C@H](F)C[C@H]2C(=O)NCCCc2ccccc2)c2ccc(-c3cnc4cc(C)nn4c3)cc12 [Compound 687, (2S,4R)-1-(2-(3-Acetyl-5-(2-methylpyrazolo[1,5-a]pyrimidin-6-yl)-1H-indol-1-yl)acetyl)-4-fluoro-N-(3-phenylpropyl)pyrrolidine-2-carboxamide] | > 6.00 |
| CC(=O)c1nn(CC(=O)N2C[C@H](F)C[C@H]2C(=O)Nc2cncc(Br)n2)c2ccc(-c3cnc4cc(C5CC5)nn4c3)cc12 [Compound 655, (2S,4R)-1-(2-(3-Acetyl-5-(2-cyclopropylpyrazolo[1,5-a]pyrimidin-6-yl)-1H-indazol-1-yl)acetyl)-N-(6-bromopyrazin-2-yl)-4-fluoropyrrolidine-2-carboxamide] | > 6.00 |
| CC(=O)c1nn(CC(=O)N2CC[C@H]2C(=O)Nc2cccc(Br)n2)c2ccc(-c3cnc(C)nc3)cc12 [Compound 542, (S)-1-(2-(3-Acetyl-5-(2-methylpyrimidin-5-yl)-1H-indazol-1-yl)acetyl)-N-(6-bromopyridin-2-yl)azetidine-2-carboxamide] | > 6.00 |
| CC(=O)c1nn(CC(=O)N2C[C@H]3C[C@H]3[C@H]2C(=O)Nc2nc(Br)ccc2C)c2c(C)cc(-c3cnc(C)nc3)cc12 [Compound 652, (1R,2S,5S)-3-(2-(3-Acetyl-7-methyl-5-(2-methylpyrimidin-5-yl)-1H-indazol-1-yl)acetyl)-N-(6-bromo-3-methylpyridin-2-yl)-3-azabicyclo[3.1.0]hexane-2-carboxamide] | > 6.00 |

same assay, conditions: Table 3; Human Factor D 80 nM, substrate Z-L-Lys-SBzl; read-out: IC50 (Stars)

| Structure (SMILES) | pIC50 |
| --- | --- |
| CC(=O)c1nn(CC(=O)N2[C@H]3C[C@@]3(CO)C[C@H]2C(=O)Nc2cccc(Br)n2)c2ccc(-c3cnc(C)nc3)cc12 [Compound 383, (1S,3S,5R)-2-(2-(3-Acetyl-5-(2-methylpyrimidin-5-yl)-1H-indazol-1-yl)acetyl)-N-(6-bromopyridin-2-yl)-5-(hydroxymethyl)-2-azabicyclo[3.1.0]hexane-3-carboxamide] | > 6.00 |
| CC(=O)c1nn(CC(=O)N2[C@H](C(=O)Nc3nc(Br)ccc3C)C[C@@]3(C)C[C@@H]23)c2ccc(-c3cnc(C)nc3)cc12 [Compound 485, (1R,3S,5R)-2-(2-(3-Acetyl-5-(2-methylpyrimidin-5-yl)-1H-indazol-1-yl)acetyl)-N-(6-bromo-3-methylpyridin-2-yl)-5-methyl-2-azabicyclo[3.1.0]hexane-3-carboxamide] | > 6.00 |
| CC(=O)c1nn(CC(=O)N2C[C@H](F)C[C@H]2C(=O)NC2CCCC(C)(C)C2)c2ccc(-c3cnc(C)nc3)cc12 (stereo partly drawn) [Compound 464, (2S,4R)-1-(2-(3-acetyl-5-(2-methylpyrimidin-5-yl)-1H-indazol-1-yl)acetyl)-N-(3,3-dimethylcyclohexyl)-4-fluoropyrrolidine-2-carboxamide] | > 6.00 |
| CC(=O)c1nn(CC(=O)N2C[C@H](F)C[C@H]2C(=O)Nc2cc(C(F)(F)F)cc(Br)n2)c2ccc(-c3cnc(C)nc3)cc12 [Compound 370, (2S,4R)-1-(2-(3-Acetyl-5-(2-methylpyrimidin-5-yl)-1H-indazol-1-yl)acetyl)-N-(6-bromo-4-(trifluoromethyl)pyridin-2-yl)-4-fluoropyrrolidine-2-carboxamide] | > 6.00 |
| Cc1cccc(C[C@H](O)[C@@H]2C[C@@H](F)CN2C(=O)Cn2cc(C(N)=O)c3cc(-c4cnc(C)nc4)ccc32)n1 [Compound 455, 1-(2-((2S,4R)-4-fluoro-2-((S)-1-hydroxy-2-(6-methylpyridin-2-yl)ethyl)pyrrolidin-1-yl)-2-oxoethyl)-5-(2-methylpyrimidin-5-yl)-1H-indole-3-carboxamide] | < 5.00 |
| CNc1ncc(-c2ccc3c(c2)c(C(C)=O)nn3CC(=O)N2C[C@H](F)C[C@H]2C(=O)Nc2cccc(Br)n2)cn1 [Compound 390, (2S,4R)-1-(2-(3-Acetyl-5-(2-(methylamino)pyrimidin-5-yl)-1H-indazol-1-yl)acetyl)-N-(6-bromopyridin-2-yl)-4-fluoropyrrolidine-2-carboxamide] | > 6.00 |
